Values of other authors as cited in patent publication US20090306049A1, “Treatment of Barrett's Esophagus” (HUBRECHT LABORATORIUM, priority 2005, published 2009).

Tested on: Barrett's carcinoma

For O=P1(NCCCl)OCCCN1CCCl (stereo not shown) [ifosfamide], the “overall efficacy of treatment” value (25 patients treated) is listed as “essentially ineffective”, the “patients cured of metastatic adenocarcinoma in Barrett's oesophagus” value (25 patients treated) is listed as “One” and the “patients with a partial response” value (25 patients treated) is listed as “one”. The “toxicity associated with treatment” value (generally considered) was “severe toxicity”.
